Data on 23 compounds can be found in ChEMBL document CHEMBL1126745, “2,2-Dialkylnaphthalen-1-ones as new potassium channel activators” (J Med Chem, 1993).

The species entered for one test is Cavia porcellus. As to the kind of experiment: In vitro inhibition of spontaneous tone of guinea pig tracheal spirals. In kind it is functional. To be noted: Trachea.
For test [1], the species on record is Rattus norvegicus. The test is described as follows: In vitro inhibition of noradrenaline-induced contractions in rat portal vein. In kind it is functional.
The test system of test [2] is Rattus norvegicus. The test is described as follows: Change in systolic blood pressure at intervals of 1 hr after oral administration of 1 mg/kg of compound in spontaneously hypertensive rats (in vivo). Format: functional, Artery.

Turning to `CC1(C)C=C(N2CCCC2=O)c2cc(Br)ccc2C1=O`, the IC50 in the test listed under Cavia porcellus worked out at 7.3 µM; in the test listed under Rattus norvegicus [1] it was 10 µM.

Turning to `CC1(C)C(=O)c2ccc(S(=O)(=O)c3ccccc3)cc2[C@@H](n2ccccc2=O)[C@@H]1O`, the figures for the IC50 in the test listed under Cavia porcellus and in the test listed under Rattus norvegicus [1] were 0.7 µM and 0.3 µM, respectively.

With `CC1(C)C(=O)c2ccc(C#N)cc2[C@@H](NC(=O)c2ccccn2)[C@@H]1O`, the figures for the concentration for half-maximal inhibition (IC50) in the test listed under Cavia porcellus and in the test listed under Rattus norvegicus [1] were greater than 10 µM and 23 µM, respectively.

In the test filed under Cavia porcellus, `CC1(C)C(=O)c2ccc(C#N)cc2[C@@H](NC(=O)c2ccccc2)[C@@H]1O` displayed an IC50 of 1.8 µM. For the same compound, the “Max fall in blood pressure” value in the test with Rattus norvegicus [2] is listed as 31 mmHg.

Consider `CC1(C)C(=O)c2ccc(Br)cc2[C@@H](n2ccccc2=O)[C@@H]1O`, for which the half-maximal inhibitory concentration (IC50) is greater than 10 µM in the test filed under Cavia porcellus and 28 µM in the test listed under Rattus norvegicus [1]. For the same compound, the “Max fall in blood pressure” value in the test with Rattus norvegicus [2] is on record as 31 mmHg.

As to `CC1(C)C(=O)c2ccc(C#N)cc2[C@@H](Oc2ccccn2)[C@@H]1O`, the figures for the IC50 in the test listed under Cavia porcellus and in the test filed under Rattus norvegicus [1] were 5.5 µM and 25 µM, respectively. In the test with Rattus norvegicus [2], the “Max fall in blood pressure” value is 43 mmHg.

As to `CC1(C)C=C(n2ccccc2=O)c2cc(S(=O)(=O)c3ccccc3)ccc2C1=O`, the concentration for half-maximal inhibition (IC50) in the test listed under Cavia porcellus stood at 0.5 µM; in the test listed under Rattus norvegicus [1] it was 0.1 µM. Also, the “Max fall in blood pressure” value in the test with Rattus norvegicus [2] stood at 32.6 mmHg.

In the test filed under Cavia porcellus, `CC1(C)C(=O)c2ccc(C(F)(F)F)cc2[C@@H](n2ccccc2=O)[C@@H]1O` yielded an IC50 of 1.4 µM.

With `COC(=O)c1ccc2c(c1)C(n1ccccc1=O)=CC(C)(C)C2=O`, the IC50 was found to be 8.5 µM in the test filed under Cavia porcellus and 2.7 µM in the test filed under Rattus norvegicus [1]. In addition, the “Max fall in blood pressure” value with Rattus norvegicus [2] is 39 mmHg.

`C=CCn1nc(O[C@@H]2c3cc(C#N)ccc3C(=O)C(C)(C)[C@H]2O)ccc1=O`: the IC50 worked out at 3.9 µM in the test filed under Cavia porcellus and 14 µM in the test filed under Rattus norvegicus [1].

Take `COc1ccc(C(=O)N[C@@H]2c3cc(C#N)ccc3C(=O)C(C)(C)[C@H]2O)cc1`: the 50% inhibitory concentration (IC50) in the test filed under Cavia porcellus is 12.2 µM; in the test listed under Rattus norvegicus [1], 12 µM.

Consider `CO/N=C1\c2ccc(C#N)cc2C(n2ccccc2=O)=CC1(C)C`, for which the half-inhibitory concentration (IC50) is greater than 10 µM in the test filed under Cavia porcellus and 25 µM in the test listed under Rattus norvegicus [1]. The “Max fall in blood pressure” value in the test on Rattus norvegicus [2] is recorded as 32.4 mmHg.

Regarding `CC1(C)C(=O)c2ccc(Br)cc2[C@@H](N2Cc3ccccc3C2=O)[C@@H]1O`, the IC50 in the test filed under Cavia porcellus is greater than 10 µM; in the test listed under Rattus norvegicus [1] it was 3.1 µM. Besides, in the test with Rattus norvegicus [2], the “Max fall in blood pressure” value is 24 mmHg.

For the compound `C=Cc1ccc2c(c1)C(n1ccccc1=O)=CC(C)(C)C2=O`, the figures for the IC50 in the test filed under Cavia porcellus and in the test listed under Rattus norvegicus [1] were 4.6 µM and 1.5 µM, respectively. Moreover, the “Max fall in blood pressure” value in the test with Rattus norvegicus [2] was found to be 30.6 mmHg.

`CC1(C)C(=O)c2ccc(C#N)cc2[C@@H](n2ccccc2=O)[C@@H]1OC=O` had an IC50 in the test listed under Cavia porcellus of 4.3 µM. Also, the “Max fall in blood pressure” value with Rattus norvegicus [2] was determined as 42 mmHg.

In the case of `CC(=O)O[C@H]1[C@H](n2ccccc2=O)c2cc(C#N)ccc2C(=O)C1(C)C`, the concentration for half-maximal inhibition (IC50) in the test listed under Cavia porcellus was 2 µM; in the test filed under Rattus norvegicus [1] it was 23 µM.

Turning to `CC1(C)C=C(NC(=O)c2ccccn2)c2cc(C#N)ccc2C1=O`, the IC50 amounted to 3.1 µM in the test filed under Cavia porcellus and 9 µM in the test filed under Rattus norvegicus [1]. Also, the “Max fall in blood pressure” value with Rattus norvegicus [2] is listed as 22.5 mmHg.

For the compound `CCc1ccc2c(c1)C(n1ccccc1=O)=CC(C)(C)C2=O`, the results for the half-maximal inhibitory concentration (IC50) in the test filed under Cavia porcellus and in the test listed under Rattus norvegicus [1] were 5.1 µM and 5.5 µM, respectively. In the test on Rattus norvegicus [2], the “Max fall in blood pressure” value came out at 58 mmHg.

On to `COc1ccc2c(c1)C(n1ccccc1=O)=CC(C)(C)C2=O`, for which the IC50 in the test listed under Cavia porcellus stood at 3.1 µM; in the test filed under Rattus norvegicus [1] it was 21 µM.

Consider `CC1(C)C=C(n2ccccc2=O)c2cc(F)ccc2C1=O`, for which the IC50 was determined as 3.9 µM in the test filed under Cavia porcellus and 19 µM in the test listed under Rattus norvegicus [1]. For the same compound, the “Max fall in blood pressure” value in the test on Rattus norvegicus [2] came out at 35 mmHg.

For `CC1(C)C(=O)c2ccc(Br)cc2[C@@H](Oc2ccc(=O)[nH]n2)[C@@H]1O`, the figures for the half-maximal inhibitory concentration (IC50) in the test filed under Cavia porcellus and in the test filed under Rattus norvegicus [1] were 4.4 µM and 0.8 µM, respectively.

For the compound `CC(=O)c1ccc2c(c1)C(n1ccccc1=O)=CC(C)(C)C2=O`, the IC50 in the test listed under Cavia porcellus was 1 µM; in the test listed under Rattus norvegicus [1], 3.3 µM. Further, the “Max fall in blood pressure” value in the test with Rattus norvegicus [2] is given as 56.5 mmHg.

`CC1(C)C(=O)c2cc(Br)ccc2[C@@H](n2ccccc2=O)[C@@H]1O` returned a concentration for half-maximal inhibition (IC50) in the test filed under Rattus norvegicus [1] of 42 µM. Moreover, the “Max fall in blood pressure” value with Rattus norvegicus [2] is reported as 29.3 mmHg.

As a reminder, the IC50 is the concentration at which inhibition is half-maximal.
